Columns and labels:
DU-145 [1] = experiment: Inhibition of proliferation of human DU145 cells at 102 uM after 72 hrs by XTT assay; assay type: functional; settings: DU-145, 72 h
HepG2 [2] = experiment: Inhibition of proliferation of human HepG2 cells at 44.2 uM after 72 hrs by XTT assay; assay type: functional; settings: HepG2, 72 h
HepG2 [3] = experiment: Inhibition of proliferation of human HepG2 cells at 72.5 uM after 72 hrs by XTT assay; assay type: functional; settings: HepG2, 72 h
DU-145 [4] = experiment: Inhibition of proliferation of human DU145 cells after 72 hrs by XTT assay; assay type: functional, cell-based; settings: DU-145, 72 h
HepG2 [5] = experiment: Inhibition of proliferation of human HepG2 cells after 72 hrs by XTT assay; assay type: functional, cell-based; settings: HepG2, 72 h
DU-145 [6] = experiment: Inhibition of proliferation of human DU145 cells at 44.2 uM after 72 hrs by XTT assay; assay type: functional; settings: DU-145, 72 h
HepG2 [7] = experiment: Inhibition of proliferation of human HepG2 cells at 36.2 uM after 72 hrs by XTT assay; assay type: functional; settings: HepG2, 72 h
DU-145 [8] = experiment: Inhibition of proliferation of human DU145 cells at 36.2 uM after 72 hrs by XTT assay; assay type: functional; settings: DU-145, 72 h
HepG2 [9] = experiment: Inhibition of proliferation of human HepG2 cells at 51 uM after 72 hrs by XTT assay; assay type: functional; settings: HepG2, 72 h
DU-145 [10] = experiment: Inhibition of proliferation of human DU145 cells at 38.5 uM after 72 hrs by XTT assay; assay type: functional; settings: DU-145, 72 h
DU-145 [11] = experiment: Inhibition of proliferation of human DU145 cells at 35.2 uM after 72 hrs by XTT assay; assay type: functional; settings: DU-145, 72 h
HepG2 [12] = experiment: Inhibition of proliferation of human HepG2 cells at 35.2 uM after 72 hrs by XTT assay; assay type: functional; settings: HepG2, 72 h
DU-145 [13] = experiment: Inhibition of proliferation of human DU145 cells at 34.1 uM after 72 hrs by XTT assay; assay type: functional; settings: DU-145, 72 h
HepG2 [14] = experiment: Inhibition of proliferation of human HepG2 cells at 34.1 uM after 72 hrs by XTT assay; assay type: functional; settings: HepG2, 72 h

SMILES	IC50 (DU-145 [4]) [µM]	IC50 (HepG2 [5]) [µM]	further results
Cc1ccc(S(=O)(=O)NNC(N)=S)cc1	8.98	8.98	inhibition at 102 µM (DU-145 [1]): 100%; inhibition at 44.2 µM (HepG2 [2]): 100%; inhibition at 72.5 µM (HepG2 [3]): 100%
Cc1ccc(S(=O)(=O)NNc2nc(C)cs2)cc1	6.96	< 5.65	inhibition at 44.2 µM (DU-145 [6]): 100%; inhibition at 36.2 µM (HepG2 [7]): 100%
O=C(NNc1nc(CCl)cs1)c1csc(-c2ccccc2)n1	49.2	11.2	
Cc1ccc(S(=O)(=O)NNc2nc(-c3ccccc3)cs2)cc1	9.07	9.16	inhibition at 36.2 µM (DU-145 [8]): 100%; inhibition at 51 µM (HepG2 [9]): 100%
CC(=O)c1sc(NNS(=O)(=O)c2ccc(C)cc2)nc1C	9.84	8.77	inhibition at 38.5 µM (DU-145 [10]): 100%
CCOC(=O)c1sc(NNS(=O)(=O)c2ccc(C)cc2)nc1C	4.68	< 4.51	inhibition at 35.2 µM (DU-145 [11]): 100%; inhibition at 35.2 µM (HepG2 [12]): 100%
CC(=O)N(c1nc(C)cs1)N(C(C)=O)S(=O)(=O)c1ccc(C)cc1	7.63	7.36	inhibition at 34.1 µM (DU-145 [13]): 100%; inhibition at 34.1 µM (HepG2 [14]): 100%
CC(=O)N(c1nc(CCl)cs1)N(C(C)=O)S(=O)(=O)c1ccc(C)cc1	> 62.3	> 62.3	
CC(=O)N(c1nc(-c2ccccc2)cs1)N(C(C)=O)S(=O)(=O)c1ccc(C)cc1	> 58.3	> 58.3	
CC(=O)c1sc(N(C(C)=O)N(C(C)=O)S(=O)(=O)c2ccc(C)cc2)nc1C	53.5	57.4	
CCOC(=O)c1sc(N(C(C)=O)N(C(C)=O)S(=O)(=O)c2ccc(C)cc2)nc1C	> 57	> 57	
CCOC(=O)Cc1csc(N(C(C)=O)N(C(C)=O)S(=O)(=O)c2ccc(C)cc2)n1	46.4	11	
CCOC(=O)Cc1csc(N(NC(=O)c2csc(-c3ccccc3)n2)C(C)=O)n1	> 58.1	> 58.1	
COc1cccc2c1C(=O)c1c(O)c3c(c(O)c1C2=O)C[C@@](O)(C(=O)CO)C[C@@H]3O[C@H]1C[C@H](N)[C@H](O)[C@H](C)O1 [DOXORUBICIN]	< 2.94	< 2.94	

From ChEMBL document CHEMBL1275295, “Synthesis of some p-toluenesulfonyl-hydrazinothiazoles and hydrazino-bis-thiazoles and their anticancer activity” (Eur J Med Chem, 2010)
